Experimental data as given in the supplement of paper PMC13380429.

Columns and labels:
[1] = tested on: A549-ACE2 infected with SARS-CoV-2; experiment: cell count relative to DMSO; higher = less toxic; conditions: 24 h
[2] = tested on: Caco-2; experiment: relative viability EC50 (midpoint between 100% and the lowest measured viability); higher = less toxic; conditions: 72 h
[3] = tested on: Vero E6; experiment: as above; conditions: 72 h
[4] = tested on: HepG2; experiment: as above; conditions: 72 h
[5] = tested on: Calu-3; experiment: as above; conditions: 72 h
[6] = tested on: U2OS; experiment: as above; conditions: 72 h
[7] = tested on: A549-ACE2 infected with SARS-CoV-2; experiment: morphology score (similarity to uninfected cells); higher = more like uninfected cells; conditions: 24 h
[8] = tested on: A549-ACE2; experiment: drug-induced phospholipidosis relative to tamoxifen; higher = more phospholipidosis
[9] = tested on: Caco-2; experiment: cell viability relative to DMSO; higher = less toxic; conditions: 72 h
[10] = tested on: Vero E6; experiment: as above; conditions: 72 h
[11] = tested on: HepG2; experiment: as above; conditions: 72 h
[12] = tested on: Calu-3; experiment: as above; conditions: 72 h
[13] = tested on: U2OS; experiment: as above; conditions: 72 h
[14] = tested on: A549-ACE2; experiment: phospholipidosis EC50; higher = less potent phospholipidosis inducer
[15] = tested on: Caco-2; experiment: drug sensitivity score (DSS) for viability; higher = more toxic; extreme values may be limits of the assay; conditions: 72 h
[16] = tested on: Vero E6; experiment: as above; conditions: 72 h
[17] = tested on: HepG2; experiment: as above; conditions: 72 h
[18] = tested on: Calu-3; experiment: as above; conditions: 72 h
[19] = tested on: U2OS; experiment: as above; conditions: 72 h
[20] = tested on: A549-ACE2 infected with SARS-CoV-2; experiment: SARS-CoV-2 infection rate relative to DMSO; higher = more infection; conditions: 24 h

Cc1cccc(/C=N/Nc2cc(N3CCOCC3)n3nc(-c4ccncc4)cc3n2)c1 [APY0201]
Conditions	SARS-CoV-2 infection rate [%]	cell count [%]	cell viability [%]	morphology score	phospholipidosis EC50 [µM]
[1], 0.3 µM	–	113	–	–	–
[1], 3 µM	–	98	–	–	–
[1], 10 µM	–	94	–	–	–
[1], 30 µM	–	91	–	–	–
[7], 0.3 µM	–	–	–	0.21	–
[7], 3 µM	–	–	–	-0.06	–
[7], 10 µM	–	–	–	-0.03	–
[7], 30 µM	–	–	–	-0.04	–
[9], 1 nM	–	–	95.5	–	–
[9], 10 nM	–	–	101	–	–
[9], 100 nM	–	–	92.8	–	–
[9], 1000 nM	–	–	97	–	–
[9], 10000 nM	–	–	80.1	–	–
[10], 1 nM	–	–	110	–	–
[10], 10 nM	–	–	104	–	–
[10], 100 nM	–	–	96.7	–	–
[10], 1000 nM	–	–	45.6	–	–
[10], 10000 nM	–	–	38.2	–	–
[11], 1 nM	–	–	99.8	–	–
[11], 10 nM	–	–	98.9	–	–
[11], 100 nM	–	–	82.8	–	–
[11], 1000 nM	–	–	31.3	–	–
[11], 10000 nM	–	–	22.3	–	–
[12], 1 nM	–	–	111	–	–
[12], 10 nM	–	–	101	–	–
[12], 100 nM	–	–	87.8	–	–
[12], 1000 nM	–	–	85.8	–	–
[12], 10000 nM	–	–	98.1	–	–
[13], 1 nM	–	–	94.2	–	–
[13], 10 nM	–	–	97.7	–	–
[13], 100 nM	–	–	93.9	–	–
[13], 1000 nM	–	–	91.2	–	–
[13], 10000 nM	–	–	77.6	–	–
[14], 24 h	–	–	–	–	0.3
[14], 48 h	–	–	–	–	1.08
[14], 72 h	–	–	–	–	0.851
[20], 0.3 µM	41	–	–	–	–
[20], 3 µM	72	–	–	–	–
[20], 10 µM	72	–	–	–	–
[20], 30 µM	65	–	–	–	–

Conditions	drug sensitivity score	relative viability EC50 [µM]
[2]	–	> 10
[3]	–	0.392
[4]	–	0.24
[5]	–	> 10
[6]	–	> 10
[15]	1	–
[16]	10.4	–
[17]	14.8	–
[18]	2	–
[19]	1.2	–

drug-induced phospholipidosis [%], [8]
Conditions	0.3 µM	0.833333 µM	3.33333 µM	6.66667 µM	10 µM	30 µM
24 h	100	98.4	102	100	85.1	97.8
48 h	105	98.3	47.8	39.8	–	61.8
72 h	141	95	33.5	42.7	–	–

CCCCc1oc2ccc(NS(C)(=O)=O)cc2c1C(=O)c1ccc(OCCCN(CCCC)CCCC)cc1 [dronedarone]
Conditions	SARS-CoV-2 infection rate [%]	cell count [%]	cell viability [%]	morphology score	phospholipidosis EC50 [µM]
[1], 0.1 µM	–	103	–	–	–
[1], 0.3 µM	–	100	–	–	–
[1], 1 µM	–	111	–	–	–
[1], 3 µM	–	112	–	–	–
[7], 0.1 µM	–	–	–	0.12	–
[7], 0.3 µM	–	–	–	0.11	–
[7], 1 µM	–	–	–	0.64	–
[7], 3 µM	–	–	–	0.81	–
[9], 1 nM	–	–	101	–	–
[9], 10 nM	–	–	102	–	–
[9], 100 nM	–	–	94.7	–	–
[9], 1000 nM	–	–	102	–	–
[9], 10000 nM	–	–	44.6	–	–
[10], 1 nM	–	–	108	–	–
[10], 10 nM	–	–	105	–	–
[10], 100 nM	–	–	107	–	–
[10], 1000 nM	–	–	100	–	–
[10], 10000 nM	–	–	61.9	–	–
[11], 1 nM	–	–	110	–	–
[11], 10 nM	–	–	101	–	–
[11], 100 nM	–	–	110	–	–
[11], 1000 nM	–	–	99.6	–	–
[11], 10000 nM	–	–	17.6	–	–
[12], 1 nM	–	–	102	–	–
[12], 10 nM	–	–	108	–	–
[12], 100 nM	–	–	108	–	–
[12], 1000 nM	–	–	102	–	–
[12], 10000 nM	–	–	5.7	–	–
[13], 1 nM	–	–	100	–	–
[13], 10 nM	–	–	107	–	–
[13], 100 nM	–	–	98.1	–	–
[13], 1000 nM	–	–	102	–	–
[13], 10000 nM	–	–	23	–	–
[14], 24 h	–	–	–	–	0.926
[14], 48 h	–	–	–	–	2.18
[14], 72 h	–	–	–	–	2.34
[20], 0.1 µM	95	–	–	–	–
[20], 0.3 µM	94	–	–	–	–
[20], 1 µM	65	–	–	–	–
[20], 3 µM	13	–	–	–	–

Conditions	drug sensitivity score	relative viability EC50 [µM]
[2]	–	3.38
[4]	–	3.13
[5]	–	3.28
[6]	–	3.29
[15]	2.8	–
[16]	1.8	–
[17]	4.6	–
[18]	5.1	–
[19]	4.1	–

drug-induced phospholipidosis [%], [8]
Conditions	0.3 µM	0.833333 µM	3.33333 µM	6.66667 µM	10 µM	30 µM
24 h	5.9	23.1	79.1	94.6	47.9	35
48 h	9.08	19	96	120	–	–
72 h	7.98	17	94.1	122	–	–
